Marks after values point to notes of the source that are not given here.
Tested on: healthy participants
Test: 12-lead ECG / QTcF and concentration/QT analysis
Format: in vivo, human
Conditions: for QTcF: mean (SD)
Experimental: Safety and tolerability were assessed throughout the study via treatment emergent adverse event (TEAE) monitoring, vital signs (blood pressure, pulse rate, respiration rate, oral temperature), physical examinations, 12-lead ECGs, and clinical laboratory parameters including complete blood count (CBC), coagulation, hematology, clinical chemistry assessments, and urinalysis. Safety laboratory tests were drawn at pre-dose and at 5, 24, 36 and 144-hours post-dose for 60–400 mg Cohorts; and at 24, 48, 72 and 144-hours post-dose for the 600 mg and Food Effect Cohort. ECG assessments were conducted at pre-dose and at 1, 2, 3, 5, 9, 24, 36 and 144-hours post-dose for 60–400 mg Cohorts; and at 2, 3, 5, 9, 24, 36, 72 and 144-hours post-dose for the 600 mg and Food Effect Cohort. All adverse events (AEs) were assessed by the investigator for severity and relationship to study medication or study procedures.
All AEs were coded using the Medical Dictionary for Regulatory Activities (MedDRA) version 22.0. All AEs were listed, and the emergence of TEAEs were categorized by body system affected and analyzed to determine whether they were related to treatment. Analysis of TEAEs for VU319 vs. Placebo were completed using Fisher’s Exact Test. Assessment of the grade of toxicity or relation to the study drug for each adverse event was determined by the Investigator. Changes in vital signs, physical examination, and laboratory tests were collected. Changes in vital signs from pre-dose to 48 h post-dose were placed into 10-time bins and assessed using mixed-measures ANOVA with the time bins as the within-subjects factor and dose as the between-subjects factor. To assess changes is QT analyses with respect to VU319 concentration, we calculated the maximal change in QTcF from baseline for each participant. We assessed the relationship between these maximal changes from baseline with the participant’s Cmax using Pearson correlations. Outlier QTcF values (> 450 ms) were also assessed against PK concentrations to examine it there was any relationship using Pearson correlations. Analyses of safety data was completed by SAS version 9.4.

SMILES: Cn1cc2c(-c3cc(F)c(CN4Cc5ncccc5C4=O)c(F)c3)cccc2n1 [VU319]
- QTcF (Food effect study, 120 mg Fasted, +2 hour): 405.0 (22.7)
- QTcF (Food effect study, 120 mg Fasted, +3 hour): 405.9 (19.13)
- QTcF (Food effect study, 120 mg Fasted, +5 hour): 406.4 (18.05)
- QTcF (Food effect study, 120 mg Fasted, +9 hour): 405.5 (14.4)
- QTcF (Food effect study, 120 mg Fasted, +24 hour): 401.2 (19.21)
- QTcF (Food effect study, 120 mg Fasted, +36 hour): 405.2 (23.74)
- QTcF (Food effect study, 120 mg Fasted, +72 hour): 403.2 (16.39)
- QTcF (Food effect study, 120 mg Fasted, +144 hour): 405.1 (19.72)
- QTcF (Food effect study, 120 mg Fasted, Baseline): 408.9 (20.1)
- QTcF (Food effect study, 120 mg Fed, +2 hour): 399.2 (19.09)
- QTcF (Food effect study, 120 mg Fed, +3 hour): 402.3 (24.08)
- QTcF (Food effect study, 120 mg Fed, +5 hour): 405.0 (16.01)
- QTcF (Food effect study, 120 mg Fed, +9 hour): 402.5 (19.51)
- QTcF (Food effect study, 120 mg Fed, +24 hour): 403.0 (16.89)
- QTcF (Food effect study, 120 mg Fed, +36 hour): 399.5 (21.91)
- QTcF (Food effect study, 120 mg Fed, +72 hour, n = 9, in ms): 402.7 (17.38)^#
- QTcF (Food effect study, 120 mg Fed, +144 hour): 403.6 (24.86)
- QTcF (Food effect study, 120 mg Fed, Baseline): 406.7 (21.7)
- QT intervals, effect of dose (SAD study): no significant dose-by-time interactions or main effects of dose group
- QTcF (SAD study, 60 mg, +1 hour): 411.0 (11.82)
- QTcF (SAD study, 60 mg, +2 hour): 414.8 (18.13)
- QTcF (SAD study, 60 mg, +3 hour): 412.8 (23.01)
- QTcF (SAD study, 60 mg, +5 hour): 417.2 (19.47)
- QTcF (SAD study, 60 mg, +9 hour): 411.3 (21.31)
- QTcF (SAD study, 60 mg, +24 hour): 408.7 (8.52)
- QTcF (SAD study, 60 mg, +36 hour, n = 5): 410.6 (10.5)*
- QTcF (SAD study, 60 mg, +144 hour): 415.5 (7.66)
- QTcF (SAD study, 60 mg, Baseline): 418.0 (17.1)
- QTcF (SAD study, 120 mg, +1 hour): 409.7 (15.34)
- QTcF (SAD study, 120 mg, +2 hour): 407.0 (21.02)
- QTcF (SAD study, 120 mg, +3 hour): 412.7 (20.02)
- QTcF (SAD study, 120 mg, +5 hour): 406.8 (15.5)
- QTcF (SAD study, 120 mg, +9 hour): 409.2 (16.68)
- QTcF (SAD study, 120 mg, +24 hour): 408.3 (12.64)
- QTcF (SAD study, 120 mg, +36 hour): 408.0 (18.17)
- QTcF (SAD study, 120 mg, +144 hour): 406.7 (17.95)
- QTcF (SAD study, 120 mg, Baseline): 406.0 (12.23)
- QTcF (SAD study, 240 mg, +1 hour): 422.7 (22.05)
- QTcF (SAD study, 240 mg, +2 hour): 415.5 (28.46)
- QTcF (SAD study, 240 mg, +3 hour): 421.7 (19.48)
- QTcF (SAD study, 240 mg, +5 hour): 414.8 (24.28)
- QTcF (SAD study, 240 mg, +9 hour): 421.0 (15.03)
- QTcF (SAD study, 240 mg, +24 hour): 415.2 (16.22)
- QTcF (SAD study, 240 mg, +36 hour): 418.2 (24.29)
- QTcF (SAD study, 240 mg, +144 hour): 422.8 (12.32)
- QTcF (SAD study, 240 mg, Baseline): 426.0 (33.22)
- QTcF (SAD study, 400 mg, +1 hour): 405.3 (24.45)
- QTcF (SAD study, 400 mg, +2 hour): 405.0 (26.62)
- QTcF (SAD study, 400 mg, +3 hour): 405.3 (25.65)
- QTcF (SAD study, 400 mg, +5 hour): 405.2 (27.72)
- QTcF (SAD study, 400 mg, +9 hour): 400.7 (23.41)
- QTcF (SAD study, 400 mg, +24 hour): 400.7 (17.13)
- QTcF (SAD study, 400 mg, +36 hour): 404.5 (20.16)
- QTcF (SAD study, 400 mg, +144 hour): 410.5 (10.21)
- QTcF (SAD study, 400 mg, Baseline): 401.8 (24.13)
- QTcF (SAD study, 600 mg, +2 hour): 419.7 (27.65)
- QTcF (SAD study, 600 mg, +3 hour): 419.5 (31.48)
- QTcF (SAD study, 600 mg, +5 hour): 413.8 (23.37)
- QTcF (SAD study, 600 mg, +9 hour): 413.8 (26.54)
- QTcF (SAD study, 600 mg, +24 hour): 408.0 (17.38)
- QTcF (SAD study, 600 mg, +36 hour): 418.2 (24.79)
- QTcF (SAD study, 600 mg, +72 hour): 413.3 (19.22)
- QTcF (SAD study, 600 mg, +144 hour): 415.7 (23.99)
- QTcF (SAD study, 600 mg, Baseline): 416.0 (25.35)
- relationship between change in QTcF from baseline and Cmax (SAD study, p > 0.6): did not show a significant relationship
- relationship between change in QTcF from baseline and Cmax (food effect study, Fasted p > 0.4, Fed p > 0.5): did not show a significant relationship

From article PMC12211128, “Safety, tolerability, pharmacokinetic and pharmacodynamic effects of the muscarinic M1 positive allosteric modulator VU0467319 for Alzheimer’s disease: a single ascending-dose study in healthy participants” (Alzheimer's Research & Therapy, 2025)
